The subject of data set [1] is Six human cancer cell lines (Hs683, U-373MG, HCT-15, LoVo, A549, MCF-7). In words: MTT test of overall cell growth. In kind it is cell-based. As for the experimental part: In order to characterize the in vitro activity of the compounds of the invention, MTT tests were performed to indirectly and rapidly measure, i.e. within 5 days, the effect of such a compound on the overall cell growth. The test measures the number of metabolically active living cells that are able to transform the yellow product 3-(4,5-dimethylthiazol-2-yl)-2,5-diphenyl tetrazolium bromide (herein referred as MTT) into the blue product formazan dye by mitochondrial reduction. The amount of formazan obtained at the end of the experiment was measured by means of a spectrophotometer and is directly proportional to the number of living cells. Determination of the optical density enables a quantitative measurement of the effect of the investigated compounds as compared to the control condition (untreated cells) and/or to other reference compounds (in casu mitonafide and amonafide).
Six human cancer cell lines described in table 1 were used in the MTT tests. These cell lines cover four histological cancer types, being glioma, colon, lung and breast cancers. Cells were allowed to grow in 96-well micro-wells with a flat bottom with an amount of 100 μl of cell suspension per well with 1,000 to 4,000 cells/well depending on the cell type used. Each cell line was seeded in an MEM 5% serum culture medium.
The detailed experimental procedure was as follows: after a 24-hour period of incubation at 37° C., the culture medium was replaced by 100 μl of fresh medium in which the compound to be tested was dissolved at the following molar concentrations: 10^−9 M, 5.10^−9 M, 10^−8 M, 5.10^−8 M, 10^−7 M, 5.10^−7 M, 10^−6 M, 5.10^−6 M and 10^−5 M. Each experiment was repeated 6 times.
After 72 hours of incubation at 37° C. with (experimental conditions) or without (control condition) the compound to be tested, the medium was replaced by 100 μl MTT dissolved in RPMI at a concentration of 1 mg/ml. The micro-wells were subsequently incubated during 3 hours at 37° C. and centrifuged at 400 g during 10 minutes. MTT was removed and formazan crystals formed were dissolved in 100 μl DMSO. The micro-wells were shaken for 5 minutes and read on a spectrophotometer at wavelengths of 570 nm (maximum formazan absorbance) and 630 nm (background noise).
For each experimental condition, the mean optical density was calculated, as well as the percentage of remaining living cells in comparison with the control.

A further data set can be described thus: in vivo. To be noted: mouse.
[2] abbreviates: Homo sapiens, 72 h, range of molar concentrations giving 50% inhibition of overall tumor cells growth, MTT, 72 hours incubation, six human cancer cell lines, read-out: IC50.
[3] abbreviates: range of molar concentrations giving 50% inhibition of overall tumor cells growth, MTT, 72 hours incubation, six human cancer cell lines, hydrochloride, read-out: IC50.

From patent US20070117836A1, “NAPTHALIMIDE DERIVATIVES, METHODS FOR THEIR PRODUCTION AND PHARMACEUTICAL COMPOSITIONS THEREFROM” (priority 2004, published 2007) come the findings set out here.

Molecules are shown by their SMILES. Read-outs that look alike come from different tables or passages of the source.
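Throughout, for MTD: highest single acute dose (intraperitoneal, intravenous, subcutaneous or oral) tolerated by tumor-free mice, assessed across five dose levels per drug.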

Protocol for in vivo: The maximum tolerated dose (herein after MTD) is defined as the maximum amount of a given drug which can be administered acutely (i.e. in one intraperitoneal, intravenous, subcutaneous or oral single dose) to healthy animals, i.e. animals not grafted with tumors. The survival times and weights of the animals are recorded up to 14 days post injection. Five different doses of each drug are used for the determination of the MTD index. […] Each experimental group comprised 3 mice for the determination of the MTD index (expressed in mg/kg).

With `CN(C)CCN1C(=O)c2cccc3cc(NC(=O)c4ccccc4)cc(c23)C1=O` [Example 32, 2-[2-(dimethylamino)ethyl]-1,3-dioxo-2,3-dihydro-1H-benzo[de]isoquinolin-5-ylbenzamide], the IC50 in data set [1] (setting [2]) is greater than 10 µM.
Still for that read-out and setting: in the case of `CN(C)CCN1C(=O)c2cccc3cc(NC(=O)C(F)(F)F)cc(c23)C1=O` [Example 29, 2,2,2-trifluoro-N-{2-[2-(dimethylamino)ethyl]-1,3-dioxo-2,3-dihydro-1H-benzo[de]isoquinolin-5-yl}acetamide] it was 5 to 10 µM; in that of `COc1ccc(NC(=O)Nc2cc3c4c(cccc4c2)C(=O)N(CCN(C)C)C3=O)cc1` [Example 30], 1 to 5 µM; in that of `CCOC(=O)CC(=O)Nc1cc2c3c(cccc3c1)C(=O)N(CCN(C)C)C2=O` [Example 14, ethyl 3-({2-[2-(dimethylamino)ethyl]-1,3-dioxo-2,3-dihydro-1H-benzo[de]isoquinolin-5-yl}amino)-3-oxopropanoate], greater than 10 µM.
On to `CN(C)CCN1C(=O)c2cccc3cc(NCc4cc5c(cc4[N+](=O)[O-])OCO5)cc(c23)C1=O.Cl` [Example 41, 5-{[(benzo([1,3]dioxol-6-nitro)-5-ylmethyl]amino}-N-(2-[2-dimethylamino)ethyl]-1H-benzo[de]isoquinolin-1,3(2H)-dione hydrochloride], for which the IC50 in data set [1] (setting [3]) lay in the range of 5 to 10 µM.
`CN(C)CCN1C(=O)c2cccc3cc(NCc4ccc5c(c4)OCO5)cc(c23)C1=O.Cl` [Example 38, 5-{[1,3-benzodioxol-5-ylmethy]amino}-N-(2-[2-dimethylamino)ethyl]-1H-benzo[de]isoquinolin-1,3(2H)-dione hydrochloride]: the MTD at 14 days in the data set “in vivo” is greater than 80 mg/kg.
Consider `CN(C)CCN1C(=O)c2cccc3cc(NC(=S)Nc4ccc(OC(F)(F)F)cc4)cc(c23)C1=O` [Example 21], for which the half-maximal inhibitory concentration (IC50) in data set [1] (setting [2]) fell in the range of 1 to 5 µM.
On to `CN(C)CCN1C(=O)c2cccc3cc(NCc4ccccc4OC4OC(CO)C(O)C(O)C4O)cc(c23)C1=O.Cl` (stereo not drawn) [Example 39], for which the MTD at 14 days in the data set “in vivo” is greater than 80 mg/kg.
Turning to `COc1ccc(OC(=O)Nc2cc3c4c(cccc4c2)C(=O)N(CCN(C)C)C3=O)cc1` [Example 31], the IC50 in data set [1] (Homo sapiens, 72 h) came out at 10 µM.
For the compound `CN(C)CCN1C(=O)c2cccc3cc(NC(=O)CCCCl)cc(c23)C1=O` [Example 12, 4-chloro-N-{2-[2-(dimethylamino)ethyl]-1,3-dioxo-2,3-dihydro-1H-benzo[de]isoquinolin-5-yl}butanamide], in data set [1] (setting [2]), the IC50 is greater than 10 µM.
On to `CN(C)CCN1C(=O)c2cccc3cc(/N=C\c4cc(O)ccc4O)cc(c23)C1=O.Cl` [Example 34, 2-[2-dimethylamino)ethyl]-5-{[(1Z)-(2,5-dihydroxyphenyl)methylene]amino}-1H-benzo[de]isoquinolin-1,3(2H)-dione hydrochloride], for which the 50% inhibitory concentration (IC50) in data set [1] (read-out: IC50) lay in the range of 1 to 5 µM.
Consider `CN(C)CCN1C(=O)c2cccc3cc(NC(=O)NC(=O)CCl)cc(c23)C1=O` [Example 1, 2-chloro-N-[({2-[2-(dimethylamino)ethyl]-1,3-dioxo-2,3-dihydro-1H-benzo[de]isoquinolin-5-yl}amino)carbonyl]acetamide], for which, in data set [1] (setting [2]), the IC50 is 1 to 5 µM.
`CN(C)CCN1C(=O)c2cccc3cc(NCc4ccccc4OC4OC(CO)C(O)C(O)C4O)cc(c23)C1=O.Cl` (stereo not drawn) [Example 39, 5-{[2-(2-phenoxy-)-6-hydroxymethyltetrahydro-pyran-3,4,5-triol)-5-ylmethyl]amino}-N-(2-[2-dimethylamino)ethyl]-1H-benzo [de]isoquinolin-1,3(2H)-dione hydrochloride]: the IC50 in data set [1] (setting [3]) is greater than 10 µM.
Regarding `CN(C)CCN1C(=O)c2cccc3cc(NC(=O)Cc4ccc(Cl)cc4)cc(c23)C1=O` [Example 13, 2-(4-chlorophenyl)-N-{2-[2-(dimethylamino)ethyl]-1,3-dioxo-2,3-dihydro-1H-benzo[de]isoquinolin-5-yl}acetamide], the IC50 in data set [1] (setting [2]) was 5 to 10 µM.
Take `COc1ccc(CC(=O)Nc2cc3c4c(cccc4c2)C(=O)N(CCN(C)C)C3=O)cc1` [Example 15, 2-(4-methoxyphenyl)-N-{2-[2-(dimethyl-amino)ethyl]-1,3-dioxo-2,3-dihydro-1H-benzo[de]isoquinolin-5-yl}acetamide]: the IC50 in data set [1] (setting [2]) lay in the range of 1 to 5 µM.

For orientation: IC50 means the concentration needed to halve the response being measured.
